Experimental data taken from patent publication US5776742A, “Aldehyde dehydrogenase enzyme” (Roche Vitamins Inc., priority 1996, dated 1998).
Several values for one entry are separate records, joined by “and”; a condition that tells them apart may be missing. Identical values can stand only once. Entries after “also recorded” stand apart in the source; their conditions may differ. Like-named read-outs stand apart in the source and are kept apart here.

Legend:
[1] = molecular target: T1, aldehyde dehydrogenase (ADH) (Ketogulonicigenium vulgare, UniProt F9Y7W8); experiment: Electron acceptor suitability for L-sorbosone oxidation; format: biochemical, Gluconobacter oxydans DSM 4025 (FERM BP-3812); conditions: oxidation of L-sorbosone to 2-keto-L-gulonic acid
T1 sequence (F9Y7W8 1-429): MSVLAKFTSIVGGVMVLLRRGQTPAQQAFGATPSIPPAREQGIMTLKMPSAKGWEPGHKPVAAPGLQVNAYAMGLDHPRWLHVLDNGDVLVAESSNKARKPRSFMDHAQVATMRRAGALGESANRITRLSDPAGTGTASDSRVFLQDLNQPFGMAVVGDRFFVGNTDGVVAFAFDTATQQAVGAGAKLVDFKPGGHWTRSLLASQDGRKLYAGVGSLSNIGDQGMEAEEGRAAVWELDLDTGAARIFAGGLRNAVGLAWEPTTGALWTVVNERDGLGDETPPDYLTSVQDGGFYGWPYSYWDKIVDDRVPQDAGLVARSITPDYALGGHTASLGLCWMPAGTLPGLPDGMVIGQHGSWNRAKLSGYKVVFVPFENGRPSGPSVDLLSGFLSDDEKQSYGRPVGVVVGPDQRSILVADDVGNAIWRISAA

[2] = molecular target: T1, aldehyde dehydrogenase (ADH); experiment: Substrate specificity of the ADH; conditions: for activity at 100000 µM: read-out: Relative activity (%)
[3] = molecular target: T1, aldehyde dehydrogenase (ADH); experiment: Effects of metal ions, enzyme inhibitors and PQQ on the activity of ADH; format: biochemical, Gluconobacter oxydans DSM 4025 (FERM BP-3812); conditions: for inhibition at 1870 µM: read-out: inhibition of the activity
[4] = read-out: Relative activity (%)
[5] = compound 0.950 mM, None = 100, read-out: Relative activity (%)
[6] = compound 1.870 mM, None = 100, read-out: Relative activity (%)

## O=C1C(Cl)=CC(=Nc2ccc(O)cc2)C=C1Cl
[1]
  suitability as electron acceptor (in words): oxidizes L-sorbosone to 2-keto-L-gulonic acid in the presence of electron acceptors

## O=CC(O)CO (racemic) [D,L-Glyceraldehyde]
[2]
  activity at 100000 µM: 789%
[2]; substrate vs L-sorbosone
  relative activity, times higher than that for L-sorbosone: about 8 times

## O.O.O.O.O=[N+]([O-])[O-].O=[N+]([O-])[O-].[Ca+2] [Ca(NO3)2.4H2 O]
[3]; metal 0.0387 mM, None = 100
  Relative activity (%): 294%
[3]; metal 0.19 mM, None = 100
  Relative activity (%): 450%

## [Ca+2].[Cl-].[Cl-] [CaCl2]
[3]; metal 0.0387 mM, None = 100
  Relative activity (%): 337%

## [Ca+2] [Ca^2+]
[3]
  effect on the enzyme activity (in words): Stimulator

## O.O.O.O.O.O.[Cl][Cu][Cl] [CuCl2.6H2 O]
[3]; metal 0.0387 mM, None = 100
  Relative activity (%): 100%
[3]; metal 0.19 mM, None = 100
  Relative activity (%): 50%
[3]; metal 0.374 mM, None = 100
  Relative activity (%): 0%

## O.O.O.O.O.O.O.O=S(=O)([O-])[O-].[Cu+2] [CuSO4.7H2 O]
[3]; metal 0.19 mM, None = 100
  Relative activity (%): 100%
[3]; metal 0.374 mM, None = 100
  Relative activity (%): 61.9%

## [Cu+2] [Cu^2+]
[3]
  effect on the enzyme activity (in words): inhibited; also recorded: Inhibition

## O=C(CO)[C@@H](O)[C@H](O)[C@H](O)CO [D-Fructose]
[2]
  activity at 100000 µM: 0%

## O=C[C@H](O)[C@@H](O)[C@H](O)[C@H](O)CO [D-Glucose]
[2]
  relative activity, times higher than that for L-sorbosone: ~2 times
  activity at 100000 µM: 189%

## O=CC(=O)[C@@H](O)[C@H](O)[C@H](O)CO [D-Glucosone]
[2]
  activity at 100000 µM: 77.8%

## O=C[C@@H](O)[C@@H](O)[C@H](O)[C@H](O)CO [D-Mannose]
[2]
  activity at 100000 µM: 62.2%

## O=C[C@H](O)[C@H](O)[C@H](O)CO [D-Ribose]
[2]
  activity at 100000 µM: 33.3%

## OC[C@@H](O)[C@@H](O)[C@H](O)[C@@H](O)CO [D-Sorbitol]
[2]
  activity at 100000 µM: 0%

## O=C(O)CN(CCN(CC(=O)O)CC(=O)O)CC(=O)O [EDTA, ethylenediamine tetraacetic acid, reference compound]
[3]
  effect on the enzyme activity (in words): strongly inhibited; also recorded: Inhibition
[3]; [4]
  activity at 194 µM: 3.8%
  activity at 480 µM: 2.6%
  activity at 980 µM: 1.6%

## O.O=S(=O)([O-])[O-].O=S(=O)([O-])[O-].O=S(=O)([O-])[O-].[Fe+3].[Fe+3] [Fe2 (SO4)3.nH2 O]
[3]; metal 0.0387 mM, None = 100
  Relative activity (%): 100%
[3]; metal 0.228 mM, None = 100
  Relative activity (%): 64.0%
[3]; metal 0.374 mM, None = 100
  Relative activity (%): 44.9%
[3]; metal 0.41 mM, None = 100
  Relative activity (%): 30.4%

## [Fe+3] [Fe^3+]
[3]
  effect on the enzyme activity (in words): inhibited

## O=C(CO)[C@@H](O)[C@H](O)[C@@H](O)CO [L-Sorbose]
[2]
  activity at 100000 µM: 0%

## O=CC(=O)[C@@H](O)[C@H](O)[C@@H](O)CO [L-Sorbosone]
[2]
  activity at 100000 µM: 100%

## O.O.O.O.O.O.O.O=S(=O)([O-])[O-].[Mg+2] [MgSO4.7H2 O]
[3]; metal 0.19 mM, None = 100
  Relative activity (%): 79.3%
[3]; metal 0.374 mM, None = 100
  Relative activity (%): 39.9%

## [Mg+2] [Mg^2+]
[3]
  effect on the enzyme activity (in words): inhibited

## [Na+].[Na+].[O]=[Mo](=[O])([O-])[O-] [Mo^6+]
[3]
  effect on the enzyme activity (in words): inhibited

## O=C(O)CI [Monoiodoacetate, reference compound]
[3]; [4]
  activity at 950 µM: 93.7%
  activity at 1870 µM: 87.3%
[3]
  inhibition at 1870 µM: 13%

## CCN1C(=O)C=CC1=O [N-Ethylmaleimide, reference compound]
[3]; 1.87 mM
  inhibition at 1870 µM: 24%
[3]; [5]
  activity at 950 µM: 94.1%
[3]; [6]
  activity at 1870 µM: 76.5%

## O.O.O.O.O.O.O.O=[As]([O-])([O-])O.[Na+].[Na+] [Na2 HAsO4.7H2 O, reference compound]
[3]; compound 0.950 mM, None = 100
  Relative activity (%): 100%
[3]; compound 1.870 mM, None = 100
  Relative activity (%): 107.1%

## O.O.[Na+].[Na+].[O]=[Mo](=[O])([O-])[O-] [Na2 MoO4.2H2 O]
[3]; metal 0.19 mM, None = 100
  Relative activity (%): 69.7%
[3]; metal 0.374 mM, None = 100
  Relative activity (%): 42.1%

## O.O.O.O.O.O.O=S(=O)([O-])[O-].[Ni+2] [NiSO4.6H2 O]
[3]; metal 0.375 mM, None = 100
  Relative activity (%): 17.6%

## [Ni+2] [Ni^2+]
[3]
  effect on the enzyme activity (in words): inhibited; also recorded: Inhibition

## O=C(O)c1cc(C(=O)O)c2c(n1)C(=O)C(=O)c1cc(C(=O)O)[nH]c1-2 [PQQ, pyrroloquinoline quinone, reference compound]
[3]
  effect on the enzyme activity (in words): Stimulator
[3]; 0.01 mM, read-out: stimulation of the activity
  activation at 10 µM: ~50%
[3]; compound 0.01 mM, None = 100, read-out: Relative activity (%)
  activity at 10 µM: 148%

## C=C[C@H]1C[N@@]2CC[C@H]1C[C@H]2[C@H](O)c1ccnc2ccc(OC)cc12 [Quinine, reference compound]
[3]; [5]
  activity at 950 µM: 118%
[3]; [6]
  activity at 1870 µM: 112%

## [F-].[Na+] [Sodium fluoride, reference compound]
[3]
  Relative activity (%): 100% and 105.8%

## O=C(O)CF [Sodium fluoroacetate, reference compound]
[3]; [5]
  activity at 950 µM: 118%
[3]; [6]
  activity at 1870 µM: 127%

## [Cl][Ti]([Cl])([Cl])[Cl] [TiCl4]
[3]; metal 0.19 mM, None = 100
  Relative activity (%): 100%
[3]; metal 0.374 mM, None = 100
  Relative activity (%): 80%

## [Ti+4] [Ti^4+]
[3]
  effect on the enzyme activity (in words): inhibited

## [Cl-].[Cl-].[Zn+2] [ZnCl2]
[3]; metal 0.19 mM, None = 100
  Relative activity (%): 36.1%
[3]; metal 0.374 mM, None = 100
  Relative activity (%): 21.1%

## O.O.O.O.O.O.O.O=S(=O)([O-])[O-].[Zn+2] [ZnSO4.7H2 O]
[3]; metal 0.374 mM, None = 100
  Relative activity (%): 32.6%

## [Zn+2] [Zn^2+]
[3]
  effect on the enzyme activity (in words): inhibited; also recorded: Inhibition

## CC(C)O [iso-Propanol]
[2]
  activity at 100000 µM: 0%

## CCCO [n-Propanol]
[2]
  activity at 100000 µM: 0%

## NC(=O)c1ccc[n+]([C@@H]2O[C@H](COP(=O)([O-])OP(=O)(O)OC[C@H]3O[C@@H](n4cnc5c(N)ncnc54)[C@H](OP(=O)(O)O)[C@@H]3O)[C@@H](O)[C@H]2O)c1 [nicotine amide adenine dinucleotide phosphate]
[1]
  suitability as electron acceptor (in words): not suitable

## NC(=O)c1ccc[n+]([C@@H]2O[C@H](COP(=O)([O-])OP(=O)(O)OC[C@H]3O[C@@H](n4cnc5c(N)ncnc54)[C@H](O)[C@@H]3O)[C@@H](O)[C@H]2O)c1 [nicotine amide adenine dinucleotide]
[1]
  suitability as electron acceptor (in words): not suitable

## O=O [oxygen]
[1]
  suitability as electron acceptor (in words): does not work; also recorded: not suitable

## C[n+]1c2ccccc2nc2ccccc21 [phenazine methosulfate]
[1]
  suitability as electron acceptor (in words): oxidizes L-sorbosone to 2-keto-L-gulonic acid in the presence of electron acceptors

## cytochrome c
[1]
  suitability as electron acceptor (in words): oxidizes L-sorbosone to 2-keto-L-gulonic acid in the presence of electron acceptors
